Measured values reported in patent US4001086A (priority 1976, dated 1977).

Columns and labels:
Cryptococcus neoformans = assay: standard agar-dilution assay (MIC); type: cell-based
Source text: Antibiotic A-30641 inhibits the growth of bacteria and fungi which are pathogenic to animal and plant life. The minimal inhibitory concentrations (MIC's) at which antibiotic A-30641 inhibited a variety of organisms, using a standard agar-dilution assay, are summarized in Table III.

C. albicans = assay: dermal C. albicans infection in rabbits, topical treatment; type: in vivo; settings: 10 days, 1% solution in propylene glycol
Source text: Antibiotic A-30641 is particularly useful when administered topically.

COC1c2cc(Cl)c(O)cc2ON2C(=O)C3NC(=O)C12SS3 (centres unmarked) [antibiotic A-30641]
MIC (Cryptococcus neoformans): > 0.156 µg/mL | lesions caused by a dermal C. albicans infection, severity and size (C. albicans): reduced in severity and size
